Assays:
rice = assay: Root architecture modification in wild-type rice after submersion treatment; format: in vivo, Oryza sativa cv Nipponbare; settings: 10^−8M, 24 hours submersion, assessed after two weeks, FIG. 3
Experimental: (§1) Oryza sativa cv Nipponbare wild-type and Tos17 insertion lines in POLLUX (line NC6453) and DMI3 were used for root architecture experiments (12, 13). Seeds were prepared by sterilizing with 2% bleach for 20 minutes, followed by 3, 5-minute rinses with sterile water. The sterile seeds were then imbibed overnight. Seeds were then plated on damp germination paper in Petri plates under sterile conditions and germinated in the dark at 25 degrees for 7 days. Germinated rice plants were then plated on Fahraeus medium on germination paper and grown at 22 degrees under constant light. After 5 days the plants were treated with 10^−8M LCOs and COs for 24 hours by submersion and re-plated onto Fåhræus Medium 1.5% agar plates (0.132 g/L CaCl2, 0.12 g/L MgSO4.7H2O, 0.1 g/L KH2PO4, 0.075 g/L Na2HPO4.2H2O, 5 mg/L Fe-citrate, and 0.07 mg/L each of MnCl2.4H2O, CuSO4.5H2O, ZnCl2, H3BO3, and Na2MoO4.2H2O, adjusted to pH 6.5 before autoclaving). As all signals were suspended in 50% ethanol, the appropriate concentration of ethanol in sterile DI water served as a control. Root system architecture was assessed after 2 weeks.
(§2) Total lateral roots of rice were enumerated manually two weeks after application of 10^−8M COs and LCOs. As COs and LCOs were suspended in 50% ethanol, the control is sterile deionized water containing the appropriate amount of ethanol. Lateral roots were defined as large and fine lateral roots emerging from crown roots, as well as fine lateral roots emerging from large lateral roots. Root system length was measured starting from the root-shoot junction to the tip of the longest root. The number of crown roots was assessed manually as those roots emerging from the root-shoot junction. Root type characterizations were based upon the descriptions in Gutjahr et al. (19). Data were assessed for normality using the Shapiro-Wilk test (α=0.01), and statistical significance was determined using a paired t-test assuming unequal variances, or a Mann-Whitney-Wilcoxon Test if normality was not observed (α=0.05). All statistical analysis was conducted using the R software package (20).

[1] = test system: rice trichoblasts (root hair cells); assay: Calcium spiking (YC3.6 imaging) in rice trichoblasts (root hair cells); format: cell-based, Oryza sativa cv Nipponbare; settings: 10^−5 M, FIG. 5, FIG. 6
Experimental: Mycorrhizal induced calcium responses were measured as described previously (14). Transgenic Oryza sativa Nipponbare lines carrying Yellow Cameleon 3.6 (YC3.6) FRET-based calcium sensor was used to detect calcium spiking. YC3.6 was imaged on a Nikon Eclipse Ti inverted microscope (Nikon, Japan) equipped with an OptoLED Illuminator (model OptoLED, Cairn Research Ltd, UK). YC3.6 was excited at a wavelength of 455 nm using a royal blue LED and was captured with a charge-coupled device (CCD) camera (model RETIGA-SRV, Qimaging, Canada). Emitted fluorescence was separated by an image splitter with a dichroic mirror (model Optosplit II, Cairn Research Ltd, UK) and then passed through a fluorescence filter set. Images were collected every 5 seconds with 1-second exposure and analyzed using MetaFluor (Molecular Devices, Sunnyvale, Calif., USA).
Both LCOs and COs are Required to Induce Calcium Spiking in Trichoblasts. Rhizobia colonize legumes by root hair cells (trichoblasts), whereas AM fungi colonize roots via non-root hair epidermal cells (atrichoblasts). Thus, these different root epidermal cell types may respond differently to COs and LCOs. To test this, we directly compared trichoblast and atrichoblast responses using high concentrations of CO4 in rice. Calcium oscillations observed in rice following treatments of CO4 were restricted to atrichoblasts, with no responses in trichoblasts even with CO4 treatments of 10^−5 M (FIG. 5). This preferential nature of rice atrichoblasts to respond to the AM signals is consistent with a preference for AM fungi to colonize the root via atrichoblasts (26). It is possible that either AM fungi produce signalling molecules other than S-LCO, NS-LCO and CO4 that induce calcium oscillations in rice trichoblasts, or that the mix of signalling molecules is important. To test this, we assessed induction of calcium oscillations by an equimolar mix of 10^−5 M S-LCO, NS-LCO, and CO4.

[2] = test system: rice knock-out mutants of pollux and dmi3; assay: Root architecture modification in rice Ospollux and Osdmi3 mutants; format: in vivo, Oryza sativa cv Nipponbare; settings: 10^−8M; Ospollux and Osdmi3 mutants vs wild-type; FIG. 4
Experimental: as §1
as §2, with “Lateral roots were defined as large and fine lateral roots emerging from crown roots, as well as fine lateral roots emerging from large lateral roots.” left out, “Root type characterizations were based upon the descriptions in Gutjahr et al. (19).” left out, “All statistical analysis was conducted using the R software package (20).” left out
To assess the role of the common symbiotic pathway in regulating root architecture modifications in response to purified LCOs and COs, we quantified root responses to mycorrhizal signals in rice knock-out mutants of pollux (upstream of calcium spiking) and dmi3 (downstream of calcium spiking).

M. truncatula = assay: Lateral root emergence in M. truncatula; format: in vivo, Medicago truncatula; settings: 10^−7 M; fold induction relative to the control; FIG. 7
Experimental: M. truncatula roots were treated with 10^−7 M CO4 or 10^−7 M NS-LCO and the effect on lateral root emergence was measured. The numbers in parentheses indicate the number of plants analyzed. The significance of the difference to the […] control plants, as measured using a t-test, is indicated. The treatments are measured as fold induction relative to the control. Error bars represent the standard error.
Accordingly, the disclosed method is limited in scope to treating non-leguminous plants, or seeds, seedlings or plant parts thereof.

Substance	crown root growth (rice)	lateral root growth (rice)	calcium spiking in trichoblasts [1]	root system length (rice)	dependence of overall root length increase on POLLUX / DMI3 [2]	lateral root emergence (M. truncatula)
LCO-IV (C16:0, S or C18:1, S) [S-LCO]	promoted	promoted	did not induce calcium spiking			
LCO-IV (C16:0 or C18:1) [NS-LCO]	promoted	promoted	did not induce calcium spiking	enhanced	dependent upon both POLLUX and DMI3	promotion

— US10149472B2, “Chitin oligomers for use in promoting non-leguminous plant growth and development” (Wisconsin Alumni Research Foundation, priority 2015, dated 2018)
